Eleven compounds from patent US12448389B2, “BRM targeting compounds and associated methods of use” (Prelude Therapeutics Incorporated, priority 2020, dated 2025) can be followed below.

The target in one test is T1, SMARCA4-HiBiT (Homo sapiens, UniProt P51532).
T1 construct: SMARCA4-HiBiT knock-in Hela monoclonal cell (CS3023226); host or cells: HeLa monoclonal knock-in line (CRISPR HiBiT knock-in at the endogenous locus, heterozygous)
Briefly: SMARCA4 HiBiT degradation assay in HeLa cells. The class given is cell-based. The settings on record: 18 hours incubation; for DC50: read-out: HeLa-HiBit-SM4 DC50; for Dmax: HeLa, read-out: HeLa-HiBit-SM4 Dmax (%). In short, it runs like this: (§1)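 HeLa monoclonal lines with heterozygous HiBiT knock-in were seeded at 2500 cells/well in EMEM with 10% FBS and treated with compound for 18 h at 37 °C. Remaining tagged protein was measured by Nano-Glo HiBiT lytic luminescence after 30–60 min at RT, and values came from curve fitting.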

In another test the target is T2, SMARCA2-HiBiT (Homo sapiens, UniProt P51531).
T2 construct: SMARCA2-HiBiT knock-in Hela monoclonal cell (CS302366); host or cells: HeLa monoclonal knock-in line (CRISPR HiBiT knock-in at the endogenous locus, heterozygous)
Briefly: SMARCA2 HiBiT degradation assay in HeLa cells. The class given is cell-based. The note with it: 18 hours incubation; for DC50: read-out: HeLa_HiBit-SM2 DC50; for Dmax: HeLa, read-out: HeLa-HiBit-SM2 Dmax (%). In short, it runs like this: as §1
In general terms: HiBiT is a short tag that completes a luciferase, so light tracks the accessible tagged protein.

The structures appear in SMILES notation.

T2 sequence (P51531 whole entry): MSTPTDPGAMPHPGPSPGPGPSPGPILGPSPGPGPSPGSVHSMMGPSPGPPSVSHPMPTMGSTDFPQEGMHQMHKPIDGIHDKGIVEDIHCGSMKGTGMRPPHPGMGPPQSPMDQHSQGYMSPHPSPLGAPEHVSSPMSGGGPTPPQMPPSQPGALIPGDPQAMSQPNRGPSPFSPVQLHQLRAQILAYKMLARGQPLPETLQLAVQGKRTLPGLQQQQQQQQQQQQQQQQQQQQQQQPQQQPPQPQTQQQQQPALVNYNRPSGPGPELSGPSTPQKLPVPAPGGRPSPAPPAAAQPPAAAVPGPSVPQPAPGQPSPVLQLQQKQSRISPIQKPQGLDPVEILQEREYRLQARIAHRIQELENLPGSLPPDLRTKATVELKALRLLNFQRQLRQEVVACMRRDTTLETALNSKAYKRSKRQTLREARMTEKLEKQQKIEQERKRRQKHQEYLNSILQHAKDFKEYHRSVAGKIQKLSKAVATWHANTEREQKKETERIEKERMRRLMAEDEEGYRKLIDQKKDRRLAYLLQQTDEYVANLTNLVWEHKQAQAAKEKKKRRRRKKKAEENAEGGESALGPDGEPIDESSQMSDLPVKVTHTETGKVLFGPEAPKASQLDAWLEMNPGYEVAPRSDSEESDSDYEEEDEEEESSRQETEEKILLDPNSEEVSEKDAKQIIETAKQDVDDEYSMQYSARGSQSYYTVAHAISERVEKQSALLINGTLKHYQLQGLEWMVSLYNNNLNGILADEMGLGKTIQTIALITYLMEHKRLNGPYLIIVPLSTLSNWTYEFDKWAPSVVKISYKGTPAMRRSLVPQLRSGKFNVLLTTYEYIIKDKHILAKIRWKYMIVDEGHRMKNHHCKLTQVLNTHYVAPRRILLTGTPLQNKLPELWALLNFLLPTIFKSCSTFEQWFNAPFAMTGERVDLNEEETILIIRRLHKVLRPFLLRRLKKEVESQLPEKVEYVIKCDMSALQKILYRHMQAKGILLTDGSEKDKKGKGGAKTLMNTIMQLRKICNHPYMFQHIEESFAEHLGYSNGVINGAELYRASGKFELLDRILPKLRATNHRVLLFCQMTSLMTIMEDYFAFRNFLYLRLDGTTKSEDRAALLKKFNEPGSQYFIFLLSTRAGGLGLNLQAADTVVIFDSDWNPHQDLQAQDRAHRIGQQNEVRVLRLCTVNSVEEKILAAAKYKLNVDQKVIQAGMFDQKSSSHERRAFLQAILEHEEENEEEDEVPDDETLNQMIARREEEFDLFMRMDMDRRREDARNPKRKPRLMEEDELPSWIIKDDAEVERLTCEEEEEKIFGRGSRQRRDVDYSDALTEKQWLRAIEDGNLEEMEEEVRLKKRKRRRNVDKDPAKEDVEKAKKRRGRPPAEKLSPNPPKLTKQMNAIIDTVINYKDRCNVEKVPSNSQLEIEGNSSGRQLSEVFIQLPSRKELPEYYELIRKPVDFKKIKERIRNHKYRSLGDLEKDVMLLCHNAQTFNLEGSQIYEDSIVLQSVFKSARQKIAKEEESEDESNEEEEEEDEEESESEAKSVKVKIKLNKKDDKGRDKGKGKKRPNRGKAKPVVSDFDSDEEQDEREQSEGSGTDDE
T1 sequence (P51532 whole entry): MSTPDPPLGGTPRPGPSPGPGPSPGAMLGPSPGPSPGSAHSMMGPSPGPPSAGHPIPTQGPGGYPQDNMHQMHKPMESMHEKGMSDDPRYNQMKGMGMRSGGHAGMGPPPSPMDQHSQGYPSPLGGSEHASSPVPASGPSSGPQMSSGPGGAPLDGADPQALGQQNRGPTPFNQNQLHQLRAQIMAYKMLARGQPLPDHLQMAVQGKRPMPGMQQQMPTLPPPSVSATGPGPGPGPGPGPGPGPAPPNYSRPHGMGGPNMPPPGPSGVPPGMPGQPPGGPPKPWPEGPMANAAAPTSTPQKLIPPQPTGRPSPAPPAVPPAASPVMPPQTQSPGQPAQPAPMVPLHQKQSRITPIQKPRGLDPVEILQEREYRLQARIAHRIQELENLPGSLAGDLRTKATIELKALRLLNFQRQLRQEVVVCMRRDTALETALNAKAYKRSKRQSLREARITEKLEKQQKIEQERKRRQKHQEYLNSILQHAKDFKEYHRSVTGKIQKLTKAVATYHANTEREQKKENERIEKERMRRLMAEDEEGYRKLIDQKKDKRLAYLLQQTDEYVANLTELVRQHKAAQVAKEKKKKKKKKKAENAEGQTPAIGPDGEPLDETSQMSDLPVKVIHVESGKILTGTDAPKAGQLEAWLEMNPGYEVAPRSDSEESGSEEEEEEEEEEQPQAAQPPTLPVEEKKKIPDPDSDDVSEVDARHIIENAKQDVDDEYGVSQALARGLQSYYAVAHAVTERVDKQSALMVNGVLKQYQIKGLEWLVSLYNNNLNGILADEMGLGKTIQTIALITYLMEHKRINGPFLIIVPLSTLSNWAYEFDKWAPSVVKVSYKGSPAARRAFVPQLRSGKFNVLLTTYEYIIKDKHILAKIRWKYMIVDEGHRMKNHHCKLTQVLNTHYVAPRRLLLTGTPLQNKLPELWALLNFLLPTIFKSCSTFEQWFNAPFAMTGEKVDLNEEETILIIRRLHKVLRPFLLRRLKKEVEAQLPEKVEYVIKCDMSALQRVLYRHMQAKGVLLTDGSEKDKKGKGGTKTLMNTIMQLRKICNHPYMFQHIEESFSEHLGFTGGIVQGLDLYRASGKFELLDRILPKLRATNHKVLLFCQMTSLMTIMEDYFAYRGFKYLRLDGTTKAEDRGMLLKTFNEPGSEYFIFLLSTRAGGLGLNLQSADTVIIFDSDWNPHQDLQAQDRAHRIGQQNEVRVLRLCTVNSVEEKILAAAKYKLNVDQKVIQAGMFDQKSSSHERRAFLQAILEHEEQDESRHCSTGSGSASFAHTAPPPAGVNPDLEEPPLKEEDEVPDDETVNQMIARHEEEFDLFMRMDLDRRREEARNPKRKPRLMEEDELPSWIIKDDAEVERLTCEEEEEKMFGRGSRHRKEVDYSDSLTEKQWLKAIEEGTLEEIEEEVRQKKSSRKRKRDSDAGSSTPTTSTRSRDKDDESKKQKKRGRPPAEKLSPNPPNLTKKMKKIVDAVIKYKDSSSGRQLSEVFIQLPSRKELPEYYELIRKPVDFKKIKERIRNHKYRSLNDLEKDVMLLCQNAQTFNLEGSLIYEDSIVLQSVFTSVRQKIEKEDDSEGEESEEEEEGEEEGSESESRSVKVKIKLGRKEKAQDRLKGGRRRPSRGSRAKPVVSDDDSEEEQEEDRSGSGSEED

Turning to `O=C1CCC(N2C(=O)c3ccc(N4CCC(CCN5C[C@@H]6[C@H](C5)[C@H]6CN5CCN6c7cc(-c8ccccc8O)nnc7NC[C@H]6C5)CC4)cc3C2=O)C(=O)N1` (stereo partly drawn) [Example 152, 2-(2,6-dioxopiperidin-3-yl)-5-(4-(2-((1R,5S,6r)-6-(((S)-2-(2-hydroxyphenyl)-5,6,6a,7,9,10-hexahydro-8H-pyrazino[1′,2′:4,5]pyrazino[2,3-c]pyridazin-8-yl)methyl)-3-azabicyclo[3.1.0]hexan-3-yl)ethyl)piperidin-1-yl)isoindoline-1,3-dione], on SMARCA4-HiBiT, the DC50 (usually the midpoint of the concentration-degradation curve) was below 0.01 µM and the Dmax (as a rule, the greatest extent of degradation seen) was 50 to 75%. For the same compound, at SMARCA2-HiBiT, the DC50 was below 0.01 µM and the Dmax is 50 to 75%.
As to `O=C1CCC(N2C(=O)c3ccc(NCCN4C[C@@H]5[C@H](C4)[C@H]5CN4CCN5c6cc(-c7ccccc7O)nnc6NC[C@H]5C4)cc3C2=O)C(=O)N1` (stereo partly drawn) [Example 153, 2-(2,6-dioxopiperidin-3-yl)-5-((2-((1R,5S,6r)-6-(((S)-2-(2-hydroxyphenyl)-5,6,6a,7,9,10-hexahydro-8H-pyrazino[1′,2′:4,5]pyrazino[2,3-c]pyridazin-8-yl)methyl)-3-azabicyclo[3.1.0]hexan-3-yl)ethyl)amino)isoindoline-1,3-dione], the DC50 on SMARCA4-HiBiT is 0.01 to 0.1 µM; at SMARCA2-HiBiT, below 0.01 µM. The Dmax on SMARCA4-HiBiT lay within 75 to 85%; at SMARCA2-HiBiT, 50 to 75%.
The like results for `O=C1CCC(N2C(=O)c3ccc(N4C[C@@H]5[C@@H](CN6CCC(CN7CCN8c9cc(-c%10ccccc%10O)nnc9NC[C@H]8C7)CC6)[C@@H]5C4)cc3C2=O)C(=O)N1` (stereo partly drawn) [Example 154, 2-(2,6-dioxopiperidin-3-yl)-5-((1R,5S,6s)-6-((4-(((S)-2-(2-hydroxyphenyl)-5,6,6a,7,9,10-hexahydro-8H-pyrazino[1′,2′:4,5]pyrazino[2,3-c]pyridazin-8-yl)methyl)piperidin-1-yl)methyl)-3-azabicyclo[3.1.0]hexan-3-yl)isoindoline-1,3-dione] were, in that order, below 0.01 µM, below 0.01 µM, 50 to 75% and 50 to 75%.
The like results for `O=C1CCC(N2C(=O)c3ccc(N4CCN(CCN5CCC(N6CCN7c8cc(-c9ccccc9O)nnc8NC[C@H]7C6)CC5)CC4)cc3C2=O)C(=O)N1` (stereo partly drawn) [Example 155, 2-(2,6-dioxopiperidin-3-yl)-5-(4-(2-(4-((S)-2-(2-hydroxyphenyl)-5,6,6a,7,9,10-hexahydro-8H-pyrazino[1′,2′:4,5]pyrazino[2,3-c]pyridazin-8-yl)piperidin-1-yl)ethyl)piperazin-1-yl)isoindoline-1,3-dione] were, in that order, below 0.01 µM, below 0.01 µM, above 85% and above 85%.
In the case of `O=C1CCC(N2C(=O)c3ccc(N4CCC(N5CCN6c7cc(-c8ccccc8O)nnc7NC[C@H]6C5)C4)cc3C2=O)C(=O)N1` (stereo partly drawn) [Example 156, 2-(2,6-dioxopiperidin-3-yl)-5-(3-((S)-2-(2-hydroxyphenyl)-5,6,6a,7,9,10-hexahydro-8H-pyrazino[1′,2′:4,5]pyrazino[2,3-c]pyridazin-8-yl)pyrrolidin-1-yl)isoindoline-1,3-dione], the DC50 on SMARCA4-HiBiT and at SMARCA2-HiBiT was 0.01 to 0.1 µM each time. For the same compound, the Dmax was in the range of 50 to 75% at SMARCA4-HiBiT and 75 to 85% at SMARCA2-HiBiT.
Consider `O=C1CCC(N2C(=O)c3ccc(N4CCC(CN5CCN6c7cc(-c8ccccc8O)nnc7NC[C@H]6C5)CC4)cc3C2=O)C(=O)N1` (stereo partly drawn) [Example 157, 2-(2,6-dioxopiperidin-3-yl)-5-(4-(((S)-2-(2-hydroxyphenyl)-5,6,6a,7,9,10-hexahydro-8H-pyrazino[1′,2′:4,5]pyrazino[2,3-c]pyridazin-8-yl)methyl)piperidin-1-yl)isoindoline-1,3-dione], for which, on SMARCA4-HiBiT, the half-maximal degradation concentration (DC50) lay within 0.01 to 0.1 µM and the Dmax was 50 to 75%. For the same compound, at SMARCA2-HiBiT, the DC50 was below 0.01 µM and the Dmax lay in the range of 75 to 85%.
The like results for `CN(CCN1CCC(N2CCN3c4cc(-c5ccccc5O)nnc4NC[C@H]3C2)CC1)C1CCN(c2ccc3c(c2)C(=O)N(C2CCC(=O)NC2=O)C3=O)CC1` (stereo partly drawn) [Example 158, 2-(2,6-dioxopiperidin-3-yl)-5-(4-((2-(4-((S)-2-(2-hydroxyphenyl)-5,6,6a,7,9,10-hexahydro-8H-pyrazino[1′,2′:4,5]pyrazino[2,3-c]pyridazin-8-yl)piperidin-1-yl)ethyl)(methyl)amino)piperidin-1-yl)isoindoline-1,3-dione] were, in that order, below 0.01 µM, above 85%, below 0.01 µM and above 85%.
For the compound `O=C1CCC(N2C(=O)c3ccc(N4CCN(CCN5CCO[C@H](CN6CCN7c8cc(-c9ccccc9O)nnc8NC[C@H]7C6)C5)CC4)cc3C2=O)C(=O)N1` (stereo partly drawn) [Example 159, 2-(2,6-dioxopiperidin-3-yl)-5-(4-(2-((R)-2-(((S)-2-(2-hydroxyphenyl)-5,6,6a,7,9,10-hexahydro-8H-pyrazino[1′,2′:4,5]pyrazino[2,3-c]pyridazin-8-yl)methyl)morpholino)ethyl)piperazin-1-yl)isoindoline-1,3-dione], at SMARCA4-HiBiT, the DC50 was below 0.01 µM and the Dmax was in the range of 50 to 75%. Also, at SMARCA2-HiBiT, the DC50 was below 0.01 µM and the Dmax was above 85%.
With `CC1CN(CC2CCN(c3ccc4c(c3)C(=O)N(C3CCC(=O)NC3=O)C4=O)CC2)CCC1CN1CCN2c3cc(-c4ccccc4O)nnc3NC[C@H]2C1` (stereo partly drawn) [Example 161, 2-(2,6-dioxopiperidin-3-yl)-5-(4-((4-(((S)-2-(2-hydroxyphenyl)-5,6,6a,7,9,10-hexahydro-8H-pyrazino[1′,2′:4,5]pyrazino[2,3-c]pyridazin-8-yl)methyl)-3-methylpiperidin-1-yl)methyl)piperidin-1-yl)isoindoline-1,3-dione], on SMARCA4-HiBiT, the DC50 was below 0.01 µM and the Dmax is above 85%. In addition, at SMARCA2-HiBiT, the DC50 is below 0.01 µM and the Dmax is above 85%.
As for `CC1CC(CN2CCN3c4cc(-c5ccccc5O)nnc4NC[C@H]3C2)CCN1CC1CCN(c2ccc3c(c2)C(=O)N(C2CCC(=O)NC2=O)C3=O)CC1` (stereo partly drawn) [Example 162, 2-(2,6-dioxopiperidin-3-yl)-5-[4-[[4-[[(10S)-4-(2-hydroxyphenyl)-1,5,6,8,12-pentazatricyclo[8.4.0.02,7]tetradeca-2,4,6-trien-12-yl]methyl]-2-methylpiperidine-1-yl]methyl]piperidin-1-yl] isoindole-1,3-dione], the DC50 at SMARCA4-HiBiT and on SMARCA2-HiBiT was below 0.01 µM throughout. In addition, the Dmax on SMARCA4-HiBiT and on SMARCA2-HiBiT was above 85% throughout.
Turning to `O=C1CCC(N2C(=O)c3ccc(N4CCC(NC5CCC(CN6CCN7c8cc(-c9ccccc9O)nnc8NC[C@H]7C6)CC5)CC4)cc3C2=O)C(=O)N1` (stereo partly drawn) [Example 163, 2-(2,6-dioxopiperidin-3-yl)-5-[4-[[4-[[(10S)-4-(2-hydroxyphenyl)-1,5,6,8,12-pentazatricyclo[8.4.0.02,7]tetradeca-2,4,6-trien-12-yl]methyl]cyclohexyl]amino]piperidin-1-yl]isoindole-1,3-dione], on SMARCA4-HiBiT, the DC50 is below 0.01 µM and the Dmax was above 85%. For the same compound, at SMARCA2-HiBiT, the DC50 is below 0.01 µM and the Dmax is above 85%.
